Test results taken from patent publication US20040038855A1 (priority 1999, published 2004).
Structures can show the parent of a compound that is named as a salt.

Assays:
human MCH1 receptor = human MCH1 receptor (Homo sapiens, UniProt Q99705); experiment: Intracellular calcium response to MCH in COS-7 cells transfected with MCH1 (fluo-3, FLIPR): antagonist potency; type: cell-based; parameters: expressed in transfected cells; host or cells: COS-7; conditions: read-out: Kb (nM) hMCH1
Description: MCH1 antagonist compounds were identified by their ability to inhibit the MCH-elicited response. […]. From the IC50 values, the antagonist potency (Kb)was derived using the Cheng-Prussof correction (Lazareno and Birdsall, 1993). […]

human NPY5 receptor = target: T1, human NPY5 receptor (Homo sapiens, UniProt Q15761); experiment: Binding affinity at the human NPY5 receptor; conditions: Table 3a; read-out: hNPY5 Ki
T1 construct: expressed in transfected cells
T1 sequence (Q15761 1-445): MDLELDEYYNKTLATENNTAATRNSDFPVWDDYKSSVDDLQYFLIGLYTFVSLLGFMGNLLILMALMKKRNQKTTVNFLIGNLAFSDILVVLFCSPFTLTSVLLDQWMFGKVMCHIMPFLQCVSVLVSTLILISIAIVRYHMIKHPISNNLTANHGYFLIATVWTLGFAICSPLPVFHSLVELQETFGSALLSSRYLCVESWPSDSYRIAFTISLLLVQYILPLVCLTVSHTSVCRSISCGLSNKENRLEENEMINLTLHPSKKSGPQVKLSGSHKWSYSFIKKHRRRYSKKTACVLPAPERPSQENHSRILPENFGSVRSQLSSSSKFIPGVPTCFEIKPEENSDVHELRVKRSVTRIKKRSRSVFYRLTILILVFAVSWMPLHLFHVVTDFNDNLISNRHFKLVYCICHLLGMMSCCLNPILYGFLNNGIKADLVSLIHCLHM
Description: (§1) The design of such compounds can be optimized by determining their binding affinity at the recombinant MCH1, NPY1, NPY2, Gal1, Gal2, Gal3, and 5HT2C receptors. The methods to obtain the cDNA of the receptor, express said receptors in heterologous systems, and carry out assays to determine binding affinity are described in the following publications: human NPY1 (Larhammar et al., 1992), human NPY5 (U.S. Pat. No. 5,602,024, the disclosure of which is hereby incorporated by reference in its entirety into this application), human Gall (Habert-Ortoli et al., 1994), human Gal2 (Smith et al., 1997), human Gal3 (Smith et al., 1998), and rat 5HT2C (Julius et al., 1988). Additionally, the compounds would optimally not bind at the following receptors due to possible side effects: human H1 histamine and human H2 histamine receptors; human alpha-1A adrenergic, human alpha-1D adrenergic, human alpha-2A adrenergic, human alpha-2B adrenergic, and human alpha-2C adrenergic receptors; human dopamine D1, D2, D3, D4, and D5 receptors; the β-adrenoceptor; and the human 5HT1A, human 5HT1B, human 5HT1D, human 5HT1E, human 5HT1F, human 5HT2A, rat 5HT2C, human 5HT4, human 5HT6, and human 5HT7 receptors.

human GALR1 receptor = target: T2, human GALR1 receptor (Homo sapiens, UniProt P47211); experiment: Binding affinity at the human GALR1 receptor; conditions: Table 3a; read-out: hGALR1 Ki
T2 construct: expressed in transfected cells
T2 sequence (P47211 1-349): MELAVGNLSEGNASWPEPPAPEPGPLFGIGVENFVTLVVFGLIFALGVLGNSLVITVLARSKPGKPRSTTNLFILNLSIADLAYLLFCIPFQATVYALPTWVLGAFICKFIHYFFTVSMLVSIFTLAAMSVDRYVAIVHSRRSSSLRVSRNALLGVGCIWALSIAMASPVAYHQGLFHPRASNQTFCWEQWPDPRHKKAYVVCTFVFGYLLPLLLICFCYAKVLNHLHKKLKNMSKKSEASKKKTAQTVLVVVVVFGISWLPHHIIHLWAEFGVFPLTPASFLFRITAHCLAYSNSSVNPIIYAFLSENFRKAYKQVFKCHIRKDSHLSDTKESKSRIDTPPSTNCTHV
Description: as §1

human GALR2 receptor = target: T3, human GALR2 receptor (Homo sapiens, UniProt O43603); experiment: Binding affinity at the human GALR2 receptor; conditions: Table 3a; read-out: hGALR2 Ki
T3 construct: expressed in transfected cells
T3 sequence (O43603 1-387): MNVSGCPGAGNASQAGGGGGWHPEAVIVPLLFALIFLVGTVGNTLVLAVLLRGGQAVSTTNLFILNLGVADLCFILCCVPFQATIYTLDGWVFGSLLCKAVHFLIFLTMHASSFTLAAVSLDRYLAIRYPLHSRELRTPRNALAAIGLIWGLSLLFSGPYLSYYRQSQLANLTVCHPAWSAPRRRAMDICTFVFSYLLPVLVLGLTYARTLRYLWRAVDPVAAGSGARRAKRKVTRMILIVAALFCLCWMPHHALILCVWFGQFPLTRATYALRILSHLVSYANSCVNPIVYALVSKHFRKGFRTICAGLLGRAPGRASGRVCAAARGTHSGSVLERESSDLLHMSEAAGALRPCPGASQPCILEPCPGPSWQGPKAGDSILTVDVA
Description: as §1

human GALR3 receptor = target: T4, human GALR3 receptor (Homo sapiens, UniProt O60755); experiment: Binding affinity at the human GALR3 receptor; conditions: Table 3a; read-out: hGALR3 Ki
T4 construct: expressed in transfected cells
T4 sequence (O60755 1-368): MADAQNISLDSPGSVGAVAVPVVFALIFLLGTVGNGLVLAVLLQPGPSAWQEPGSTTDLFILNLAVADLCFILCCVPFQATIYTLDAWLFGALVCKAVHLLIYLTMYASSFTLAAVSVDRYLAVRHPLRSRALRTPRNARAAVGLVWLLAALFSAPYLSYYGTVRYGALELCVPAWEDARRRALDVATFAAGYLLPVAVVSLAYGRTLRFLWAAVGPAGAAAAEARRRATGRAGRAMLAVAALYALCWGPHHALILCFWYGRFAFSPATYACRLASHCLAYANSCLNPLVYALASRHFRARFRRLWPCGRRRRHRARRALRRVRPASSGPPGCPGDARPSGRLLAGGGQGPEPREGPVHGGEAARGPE
Description: as §1

rat 5HT2C receptor = target: T5, rat 5HT2C receptor (Rattus norvegicus, UniProt P08909); experiment: Binding affinity at the rat 5HT2C receptor; conditions: Table 3a; read-out: r5HT2C Ki
T5 construct: expressed in transfected cells
T5 sequence (P08909 33-460): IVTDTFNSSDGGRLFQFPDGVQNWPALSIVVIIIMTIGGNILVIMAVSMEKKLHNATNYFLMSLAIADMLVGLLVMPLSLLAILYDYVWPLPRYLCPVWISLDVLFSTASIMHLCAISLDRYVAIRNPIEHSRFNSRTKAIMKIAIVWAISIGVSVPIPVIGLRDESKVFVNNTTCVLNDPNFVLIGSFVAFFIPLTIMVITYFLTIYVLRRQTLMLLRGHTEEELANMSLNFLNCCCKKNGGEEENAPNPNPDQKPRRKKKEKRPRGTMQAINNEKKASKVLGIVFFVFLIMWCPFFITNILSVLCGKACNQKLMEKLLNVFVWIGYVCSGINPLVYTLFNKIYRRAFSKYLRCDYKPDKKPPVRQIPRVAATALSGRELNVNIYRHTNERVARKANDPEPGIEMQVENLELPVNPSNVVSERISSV
Description: as §1
Other 5HT Receptors: Other serotonin receptor binding assays were performed according to published methods: rat 5HT2C receptor (Julius et al., 1988); and 5HT6 (Monsma, et al., 1993). The binding assays using the 5HT4 receptor were performed according to the procedures described in U.S. Pat. No. 5,766,879, the disclosure of which is hereby incorporated by reference in its entirety into this application.

human NPY1 receptor = target: T6, human NPY1 receptor (Homo sapiens, UniProt P25929); experiment: Binding affinity at the human NPY1 receptor; conditions: Table 3a; read-out: hMPY1 Ki
T6 construct: expressed in transfected cells
T6 sequence (P25929 1-384): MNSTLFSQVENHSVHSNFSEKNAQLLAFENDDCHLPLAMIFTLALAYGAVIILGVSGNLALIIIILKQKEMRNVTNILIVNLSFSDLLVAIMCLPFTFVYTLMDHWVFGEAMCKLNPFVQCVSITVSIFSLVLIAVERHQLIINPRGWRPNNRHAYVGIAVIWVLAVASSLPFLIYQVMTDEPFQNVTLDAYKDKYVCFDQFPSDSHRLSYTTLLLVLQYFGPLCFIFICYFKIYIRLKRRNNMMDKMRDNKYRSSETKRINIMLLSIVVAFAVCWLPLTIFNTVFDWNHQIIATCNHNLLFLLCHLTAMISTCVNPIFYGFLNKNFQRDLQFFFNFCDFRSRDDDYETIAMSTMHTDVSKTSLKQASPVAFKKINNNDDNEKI
Description: as §1

Chain of human MCH1 receptor (Q99705 whole entry): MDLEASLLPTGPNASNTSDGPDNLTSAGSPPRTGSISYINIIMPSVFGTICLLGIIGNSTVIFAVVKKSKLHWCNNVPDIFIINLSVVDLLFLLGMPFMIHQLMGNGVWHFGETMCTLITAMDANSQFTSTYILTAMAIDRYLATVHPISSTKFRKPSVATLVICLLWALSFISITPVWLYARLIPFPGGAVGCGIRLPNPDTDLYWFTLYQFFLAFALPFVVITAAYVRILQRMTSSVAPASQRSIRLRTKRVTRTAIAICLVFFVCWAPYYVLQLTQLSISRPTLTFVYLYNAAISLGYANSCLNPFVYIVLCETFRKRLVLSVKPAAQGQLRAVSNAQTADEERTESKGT

CCn1c(=O)n(C2CCN(CCCNC(=O)N3C(=O)NC(C)=C(C(=O)OC)C3c3ccc(F)c(F)c3)CC2)c2ccccc21 (single isomer, unassigned; (+)) [Example 7, (+)-1,2,3,6-TETRAHYDRO-1-{N-[4-(N′-ETHYL)-N-BENZIMIDAZOLYL-PIPERIDIN-1YL]PROPYL}CARBOXAMIDO-4-METHYL-6-(3,4-DIFLUOROPHENYL)-2-OXOPYRIMIDINE HYDROCHLORIDE]
Kb (human MCH1 receptor): 41 nM

CC(=O)C1=C(C)NC(=O)N(C(=O)NCCCN2CCC(c3ccc(F)cc3)CC2)C1c1cc(F)c(F)c(F)c1 (single isomer, unassigned; (+)) [Example 12, (+)-1,2,3,6-TETRA HYDRO-1-{N-[4-(4-FLUOROPHENYL)-PIPERIDINE-1-YL]-PROPYL]CARBOXAMIDO-5-ACETYL-2-OXO-6-(3,4,5-TRI FLUORO PHENYL)-4-METHYL PYRIMIDINE HYDROCHLORIDE]
Kb (human MCH1 receptor): 29 nM

COCC1=C(C(=O)OC)C(c2ccc(F)c(F)c2)N(C(=O)NCCCN2CCC(c3cc(F)ccc3OC)CC2)C(=O)N1 (single isomer, unassigned; (+)) [Example 15]
Kb (human MCH1 receptor): 289 nM

COCC1=C(C(=O)OC)C(c2ccc(F)c(F)c2)N(C(=O)NCCCN2CCC(c3ccccn3)CC2)C(=O)N1 (single isomer, unassigned; (+)) [Example 17, (+)-6-(3,4-DIFLUOROPHENYL)-1-{N-[4-(2-PYRIDYL)PIPERIDIN-1-YL]-PROPYL}CARBOXAMIDO-5-METHOXYCARBONYL-4-METHOXYMETHYL-2-OXO-1,2,3,6-TETRAHYDROPYRIMIDINE DIHYDROCHLORIDE]
Kb (human MCH1 receptor): 373 nM

CCC1=C(C(N)=O)C(c2ccc(F)c(F)c2)N(C(=O)NCCCN2CCC3(CC2)OCc2ccccc23)C(=O)N1 (single isomer, unassigned; (+)) [Example 22, (+)-1,2,3,6-TETRAHYDRO-1-{N-[4-(BENZO-4′,5′(H)FURAN)PIPERIDIN-1-YL]PROPYL}CARBOXAMIDO-4-ETHYL-6-(3,4-DIFLUOROPHENYL)-2-OXO-PYRIMIDINE-5-CARBOXAMIDE HYDROCHLORIDE]
Kb (human MCH1 receptor): 40 nM

COCC1=C(C(=O)OC)C(c2ccc(F)c(F)c2)N(C(=O)NCCCN2CCC(c3cc(F)c(F)c(F)c3)CC2)C(=O)N1 (single isomer, unassigned; (+)) [Example 33, (+)-1,2,3,6-TETRAHYDRO-1-{N-[4-(3,4,5-TRIFLUORO)-PHENYL-PIPERIDIN-1-YL]PROPYL}CARBOXAMIDO-4-METHOXYMETHYL-6-(3,4-DIFLUOROPHENYL)-2-OXOPYRIMIDINE-5-CARBOXYLIC ACID METHYL ESTER]
Kb (human MCH1 receptor): 12 nM

COCC1=C(C(=O)OC)C(c2ccc(F)c(F)c2)N(C(=O)NCCCN2CCC(C)(c3ccccc3)CC2)C(=O)N1 (single isomer, unassigned; (+)) [Example 36, (+)-1,2,3,6-TETRAHYDRO-5-METHOXYCARBONYL-4-METHOXYMETHYL-2-OXO-1-{N-[3-(4-METHYL-4-PHENYL PIPERIDINE-1-YL]PROPYL}-6-(3,4-DIFLUOROPHENYL) PYRIMIDINE]
Kb (human MCH1 receptor): 406 nM

COC(=O)C1=C(C)NC(=O)N(C(=O)NCCCN2CCC3(CC2)C(=O)CCc2ccccc23)C1c1ccc2nonc2c1 (centres unmarked) [Example 23, HYDROCHLORIDE]
Kb (human MCH1 receptor): 68 nM

CCN1c2ccc(/C=C3\SC(=S)NC3=O)cc2C(C)=CC1(C)C [Example 25]
Ki (human NPY5 receptor): > 50 µM | Ki (human GALR1 receptor): > 50 µM | Ki (human GALR2 receptor): > 50 µM | Ki (human GALR3 receptor): > 50 µM | Ki (rat 5HT2C receptor): 41 µM

Fc1ccc(C(c2ccc(F)cc2)N2CCN(C/C=C/c3ccccc3)CC2)cc1 [Example 26, 1-[BIS(4-FLUOROPHENYL)METHYL]-4-(3-PHENYL-2-PROPENYL)PIPERAZINE]
Ki (human NPY1 receptor): > 50 µM | Ki (human NPY5 receptor): > 50 µM | Ki (human GALR1 receptor): > 50 µM | Ki (human GALR2 receptor): > 50 µM | Ki (human GALR3 receptor): > 50 µM

Cc1cc(O)cc(O)c1/C=N/c1ccc(-c2cn3ccccc3n2)cc1 [Example 27]
Ki (human NPY1 receptor): > 50 µM | Ki (human NPY5 receptor): > 50 µM | Ki (human GALR1 receptor): > 50 µM | Ki (human GALR2 receptor): > 50 µM | Ki (human GALR3 receptor): > 50 µM | Ki (rat 5HT2C receptor): > 50 µM

O=C(CCCN1CCC(NC(=O)c2ccccc2)CC1)c1ccc(Cl)cc1 [Example 28, [3-(4-CHLOROBENZOYL)]PROPYL-4-BENZAMIDOPIPERIDINE]
Ki (human NPY5 receptor): > 50 µM | Ki (human GALR1 receptor): > 50 µM | Ki (human GALR2 receptor): > 50 µM | Ki (human GALR3 receptor): > 50 µM | Ki (rat 5HT2C receptor): 34.1 µM

CN1CN(c2ccccc2)C2(CCN(CCCC(=O)c3ccc(F)cc3)CC2)C1=O [Example 30, N-METHYL-8-[4-(4-FLUOROPHENYL)-4-OXOBUTYL]-1-PHENYL-1,3,8-TRI-[4.5]DECAN-4-ONE]
Ki (human NPY1 receptor): > 50 µM | Ki (human NPY5 receptor): > 50 µM | Ki (human GALR1 receptor): > 50 µM | Ki (human GALR2 receptor): > 50 µM | Ki (human GALR3 receptor): > 50 µM | Ki (rat 5HT2C receptor): 8.86 µM
